Earlier results as cited in paper PMC6311893, “Computational prediction of plasma protein binding of cyclic peptides from small molecule experimental data using sparse modeling techniques” (BMC Bioinformatics, 2018).

Test system: plasma protein
Conditions: fraction bound to plasma protein; small molecule dataset, sheet 1-SM (Set Dte = test, Dtr = training); ref Ingle et al.; cited from earlier work

Molecule	PPB (fb)
COc1cccc(OC)c1CC(=O)NC1C(=O)N2C1SC(C)(C)C2C(=O)O (stereo not shown) [penicillin18]	0.77
CCOC(=O)n1ccn(C)c1=S [carbimazole]	0.07
CCOC(=O)c1c(CSc2ccccc2)n(C)c2cc(Br)c(O)c(CN(C)C)c12 [arbidol]	0.91
CCOC(=O)[C@H](CCc1ccccc1)N[C@@H](C)C(=O)N1[C@H](C(=O)O)C[C@H]2CCCC[C@@H]21 [trandolapril]	0.84
[H]/N=C(\N/C(=N/[H])Nc1ccc(Cl)cc1)NC(C)C [chlorguanide]	0.85
Nc1c(Br)cc(Br)cc1CN[C@H]1CC[C@H](O)CC1 [ambroxol]	0.9
C#C[C@]1(O)CC[C@H]2[C@@H]3CCC4=CCCC[C@@H]4[C@H]3C(=C)C[C@@]21CC [desogestrel]	0.98
COc1ccc(O)cc1C(C)(C)C [2-butyl-4-hydroxyanisole]	0.85
CC(C(=O)O)c1ccc2oc(-c3ccc(Cl)cc3)nc2c1 (stereo not shown) [benoxaprofen]	0.99
C[C@@H]1[C@H](O)[C@@H](C)/C=C/C=C/C=C/C=C/C=C/C=C/C=C/[C@H](O[C@@H]2O[C@H](C)[C@@H](O)[C@H](N)[C@@H]2O)C[C@@H]2O[C@](O)(C[C@@H](O)C[C@@H](O)[C@H](O)CC[C@@H](O)C[C@@H](O)CC(=O)O[C@H]1C)C[C@H](O)[C@H]2C(=O)O [amphotericin-B]	0.94
NC(C(=O)NC1C(=O)N2C(C(=O)O)=C(Cl)CCC12)c1ccccc1 (stereo not shown) [loracarbef]	0.25
CC[C@H]1OC(=O)[C@H](C)[C@@H](O[C@H]2C[C@@](C)(OC)[C@@H](O)[C@H](C)O2)[C@H](C)[C@@H](O[C@@H]2O[C@H](C)C[C@H](N(C)C)[C@H]2O)[C@](C)(O)C[C@@H](C)/C(=N\OCOCCOC)[C@H](C)[C@@H](O)[C@]1(C)O [roxithromycin]	0.78
CN(C)C/C=C(/c1ccc(Br)cc1)c1cccnc1 [zimeldine]	0.9
CC(C)(C)NCC(O)COc1cccc2c1SCCC2 (stereo not shown) [tertatolol]	0.95
CN[C@H]1CC[C@@H](c2ccc(Cl)c(Cl)c2)c2ccccc21 [sertraline]	0.98
CO/N=C(\C(=O)N[C@@H]1C(=O)N2C(C(=O)O)=C(COC(C)=O)CS[C@H]12)c1csc(N)n1 [Cefotaxime]	0.38
Cc1c(N(C)CS(=O)(=O)O)c(=O)n(-c2ccccc2)n1C [dipyrone]	0.6
C[C@@H]1CCC[C@H](C)N1NC(=O)c1ccc(Cl)c(S(N)(=O)=O)c1 [clopamide]	0.5
O=C(O)Cc1ccccc1Nc1c(Cl)cccc1Cl [diclofenac acid]	0.99

Same assay, conditions: fraction bound to plasma protein; small molecule dataset, sheet 1-SM, Set Dtr; ref Ingle et al.; cited from earlier work

Molecule	PPB (fb)
CC(=O)N(CC(O)CO)c1c(I)c(C(=O)NCC(O)CO)c(I)c(C(=O)NCC(O)CO)c1I (stereo not shown) [Iohexol]	0.02
N[C@@H](C(=O)N[C@@H]1C(=O)N2C(C(=O)O)=C(CSc3c[nH]nn3)CS[C@H]12)c1ccc(O)cc1 [Cefatrizine]	0.59
C[C@H](N[C@@H](CCc1ccccc1)C(=O)O)C(=O)N1[C@H](C(=O)O)C[C@H]2CCCC[C@@H]21 [trandolaprilat]	0.94
CCCCNc1cc(C(=O)O)cc(S(N)(=O)=O)c1Oc1ccccc1 [Bumetanide]	0.96
CCC(O)(C(=O)O)c1cc2n(c(=O)c1CO)Cc1cc3c(CN(C)C)c(O)ccc3nc1-2 (stereo not shown) [Topotecan Carboxylic Acid]	0.07
CN1C(=O)OC(C)(C)C1=O [trimethadione]	0
CN1CC[C@H](c2c(O)cc(O)c3c(=O)cc(-c4ccccc4Cl)oc23)[C@H](O)C1 [Flavopiridol]	0.94
COc1ccc(-c2nc3ccc(C4=NNC(=O)CC4C)cc3[nH]2)cc1 (stereo not shown) [Pimobendan]	0.98
Fc1ccc([C@@H]2CCNC[C@H]2COc2ccc3c(c2)OCO3)cc1 [Paroxetine]	0.94
C/C=C/C1=C(C(=O)O)N2C(=O)C(NC(=O)C(N)c3ccc(O)cc3)C2SC1 (stereo not shown) [Cefprozil]	0.38
NC[C@H]1CC[C@H](C(=O)O)CC1 [tranexamic acid]	0.03
C[C@]12C=CC(=O)C=C1CC[C@@H]1[C@@H]2[C@@H](O)C[C@@]2(C)[C@H]1CC[C@]2(O)C(=O)CO [Prednisolone]	0.81

Same assay, conditions: fraction bound to plasma protein; small molecule dataset, sheet 1-SM; ref Ingle et al.; cited from earlier work

Molecule	PPB (fb)
CC(Oc1ccc(Cl)c(Cl)c1)C(=O)NC1C(=O)N2C1SC(C)(C)C2C(=O)O (stereo not shown) [penicillin58]	0.97
CC(Cc1ccc(C(C)C(=O)NS(C)(=O)=O)cc1)C(=O)O (stereo not shown) [JMC_10]	0.7
CC1OC(OC2CC(O)(C(C)O)Cc3c(O)c4c(c(O)c32)C(=O)c2ccccc2C4=O)CC(N)C1O (stereo not shown) [Idarubicinol]	0.94
CCC[C@H](N[C@@H](C)C(=O)N1[C@H](C(=O)O)C[C@@H]2CCCC[C@@H]21)C(=O)OCC [perindopril]	0.6
CCCN1CCCC[C@H]1C(=O)Nc1c(C)cccc1C [Ropivacaine]	0.94
CO/N=C1\CN(c2nc3c(cc2F)c(=O)c(C(=O)O)cn3C2CC2)CC1CN (stereo not shown) [Gemifloxacin]	0.64
OCCOCCN1CCN(C2=Nc3ccccc3Sc3ccccc32)CC1 [quetiapine]	0.83
Nc1ccc(S(=O)(=O)Nc2ccc(Cl)nn2)cc1 [sulfachlorpyridazine]	0.97
CN(CCOc1ccc(CC2SC(=O)NC2=O)cc1)c1ccccn1 (stereo not shown) [Rosiglitazone]	0.99
CCOC(=O)[C@H](CCc1ccccc1)N[C@@H](C)C(=O)N1C(=O)N(C)C[C@H]1C(=O)O [imidapril]	0.2
CC[C@]1(O)C[C@H]2CN(CCc3c([nH]c4ccccc34)[C@@](C(=O)OC)(c3cc4c(cc3OC)N(C=O)[C@H]3[C@@](O)(C(=O)OC)[C@H](OC(C)=O)[C@]5(CC)C=CCN6CC[C@]43[C@@H]65)C2)C1 [Vincristine]	0.6
CN1CCc2c(c3ccccc3n2Cc2ccccc2)C1 [mebhydrolin]	0.04
[H]/N=C(/N)N/C(=N/[H])NCCc1ccccc1 [phenformin]	0.16
C=C(CC(=O)c1ccc(-c2ccccc2Cl)cc1)C(=O)O [Itanoxone]	0.98
CCCCC(OCC)C(=O)NC1C(=O)N2C1SC(C)(C)C2C(=O)O (stereo not shown) [penicillin10]	0.74
Cc1oncc1C(=O)Nc1ccc(C(F)(F)F)cc1 [leflunomide]	0.99
CN1CCN2c3ccccc3Cc3ccccc3C2C1 (stereo not shown) [mianserin]	0.93
CC(=O)NC(CS)C(=O)O (stereo not shown) [n-acetylcysteine]	0.83
COc1cc(NS(=O)(=O)c2ccc(N)cc2)nc(OC)n1 [sulfadimethoxine]	0.95
CC(C(=O)O)c1ccc(CC2CCCC2=O)cc1 (stereo not shown) [loxoprofen]	0.96
CC(C)(C)NC(=O)[C@@H]1C[C@@H]2CCCC[C@@H]2CN1C[C@@H](O)[C@H](Cc1ccccc1)NC(=O)[C@H](CC(N)=O)NC(=O)c1ccc2ccccc2n1 [Saquinavir]	0.98

Same assay, conditions: plasma; cited from earlier work

Molecule	PPB (fb)
Cc1ncc2n1-c1ccc(Cl)cc1C(c1ccccc1F)=NC2 [Midazolam]	0.97
Fc1ccccc1C1=NCC(=S)N(CC(F)(F)F)c2ccc(Cl)cc21 [quazepam]	0.95
spironolactone	0.98
CCC1(CC)C(=O)NC(=O)NC1=O [barbital]	0.1
CCCN(CCC)CCc1cccc2c1CC(=O)N2 [ropinirole]	0.4
norgestimate	0.99
